Experimental data published in US12594264B2, “Modulators of alpha-synuclein proteolysis and associated methods of use” (Arvinas Operations, Inc., priority 2018, dated 2026).

Columns and labels:
[1] = target: T1, SI A53T α-synuclein protein oligomers (Homo sapiens, UniProt P37840, A53T); experiment: E3 ligase ligand competition experiment (Oligomer ELISA); assay type: cell-based; settings: for Degradation activity with co-incubated excess E3 ligase ligand: 1 uM compound plus 15-fold molar excess E3 ligase ligand (VHL Ligand with 7, Cereblon Ligand with 23), FIG. 6A bars 2 and 4; for Reduction of SI A53T α-synuclein oligomers (Oligomer ELISA), compound alone: 1 uM compound, no competitor, FIG. 6A bars 1 and 3
T1 construct: expressed in transfected cells
Experimental: FIGS. 6A and 6B. α-Synuclein bifunctional degradation compound activity requires the E3 ligase activity for effective degradation. Pre-formed alpha-synuclein fibrils (α-syn PFFs) were added to TREX tetracycline inducible HEK293 cells that overexpress A53T mutant α-syn to induce detergent-insoluble oligomers as measured by Oligomer ELISA. Doxycycline induced α-syn A53T cells were treated with PFFs to produce higher order oligomeric α-syn A53T in the sarkosyl insoluble fraction and SI α-syn oligomers were detected by ELISA, as described in below. Exemplary bifunctional degradation compounds 7 and 23 at 1 uM concentration, used to generate the data shown in bars 1 and 3, reduced sarkosyl insoluble α-syn.
(§1) Trex293 (doxycycline inducible) cells stably expressing human α-SYN A53T (monoclonal) were plated in poly-d-lysine coated T-75 tissue culture flasks (4.5×10e6 cells/flask) in DMEM with 10% tet-free FBS, 10 μg/ml blasticidin, and 400 μg/ml zeocin. After an overnight incubation, the cells were induced to express α-SYN by treatment with 1 μg/ml doxycycline (Dox) and exemplary bifunctional compound. After a 24 hour dox induction, the medium on the cells was changed to Opti-MEM followed by treatment with α-SYN pre-formed fibrils** (PFFs)(5 μg/flask) pre-complexed with Lipofectamine 2000 transfection reagent for 4 hours. After PFF treatment, the medium was changed back to DMEM with the supplements described above and exemplary bifunctional compound for 48 hours.
(§2) Cell pellets were harvested from each flask using 0.25% trypsin followed by spinning at 500×g for 5 minutes. Each pellet was resuspended in 1 ml cold buffer H [Buffer H-10 mM Tris, 1 mM EGTA, 0.8M NaCl, 10% sucrose, pH7.4 containing 1× protease and phosphatase inhibitors] containing protease and phosphatase inhibitors. The resuspended pellets were incubated on ice for 20 minutes followed by centrifugation at 27,200×g for 20 minutes at 4° C. The supernatants were adjusted to 1% sarkosyl (Sigma) and 1% 2-mercaptoethanol followed by incubation for 1 hour at 37° C. on an orbital shaker set to 400 rpm. The samples were then spun at 150,000×g for 35 minutes at room temperature. The supernatant was removed and saved as the soluble fraction and the insoluble pellet was resuspended in 25 μl tris-buffered saline (TBS). Protein concentrations were determined by NanoDrop, and normalized protein concentrations were analyzed by WES capillary electrophoresis as well as an α-SYN oligomer ELISA.
Coming Costar high bind black well plates were coated with MJFR 14-6-4-2 (Abcam) at 1 μg/ml for 1 hour at 37° C. followed by washing with 1×TBS+0.1% tween-20 (TBS-T) then blocking with 3% bovine serum albumin (BSA) in TBS. […] The plate was read on a luminescence plate reader. The counts were log transformed and read off the standard curve. […]

[2] = target: T2, sarkosyl insoluble (SI) α-synuclein (human α-SYN A53T) (Homo sapiens, UniProt P37840, A53T); experiment: MJFF-14-6-4-2 conformation specific ELISA of sarkosyl insoluble α-synuclein after compound treatment; assay type: cell-based; settings: 1 μM compound; protein remaining relative to DMSO control; PFF induced A53T α-synuclein overexpressing HEK293 cells; read-out: Protein Degradation at 1 μM
T2 construct: expressed in transfected cells
Experimental: (§3) Targeted degradation of sarkosyl insoluble (SI) α-synuclein via exemplary bifunctional compounds was assessed by MJFF-14-6-4-2 conformation specific ELISA following treatment of PFF induced A53T α-synuclein overexpressing HEK293 cells with 1 μM exemplary compound compared to DMSO vehicle control. Degradation activity of the exemplary compounds of Table 2 is expressed as % DMSO control. […] However, the effect of bifunctional targeting degraders, shown in FIG. 5, required the intact E3 ligase binding domain.
as §1, §2
Recombinant human α-SYN was purchased from Proteos. 1 mg aliquots were supplied at 10 mg/ml in 10 mM Tris, 50 mM NaCl, pH7.6. The aliquot was thawed on ice followed by centrifugation at 4° C. for 10 minutes at 12,000×g to pellet any insoluble material. The supernatant was removed and quantitated on a NanoDrop (A280) using Beer's Law (ε=5960 M-1 cm-1). The concentration was adjusted to 5 mg/ml in PBS followed by vortexing for 3 seconds to mix contents. The mixture was incubated in an orbital shaker set to 37° C. at 1,000 rpm for 7 days followed by aliquoting into individual use vials. Prior to addition to cells, an aliquot was thawed at room temperature, then diluted to 1 mg/ml with phosphate-buffered saline (PBS) followed by sonication for 1 minute with a probe sonicator (output 1; 90% duty cycle) in a chem hood.
Coming Costar high bind black well plates were coated with MJFR 14-6-4-2 (Abcam) at 1 μg/ml for 1 hour at 37° C. followed by washing with 1×TBS+0.1% tween-20 (TBS-T) then blocking with 3% bovine serum albumin (BSA) in TBS. After re-washing, samples were added after dilution in diluent (1% BSA/TBS-T). Non-sonicated PFF was used to generate a standard curve. The plates were incubated with sample overnight at 4° C. with shaking. The following day alkaline phosphatase (AP) conjugated MJFR 14-6-4-2 was added to the plate without washing followed by incubation at room temperature for 1 hour with shaking or rocking. The plates were then re-washed and substrate (CDP star alkaline phosphatase detection reagent) was added followed by a 30 minute incubation at room temperature. The plate was read on a luminescence plate reader. The counts were log transformed and read off the standard curve. […]

[3] = test system: PFF induced HEK293 TREX α-syn A53T cells; experiment: Cytotoxicity by visual inspection of treated cells; assay type: cell-based, human; settings: 1 μM
Experimental: as §3, §1
To assess targeted degradation of sarkosyl insoluble α-synuclein, exemplary bifunctional compounds designed to bind to oligomeric α-synuclein were tested at 1 μM in PFF induced HEK293 TREX α-syn A53T cells.

Row | SMILES | Degradation activity with co-incubated excess E3 ligase ligand [1] | Reduction of SI A53T α-synuclein oligomers (Oligomer ELISA), compound alone [1] | remaining activity at 1 µM [2] [%] | Cytotoxicity at the concentration tested [3]
1 | O=C1CCC(N2C(=O)c3ccc(N4CCN(CCN5CCC(OC6CN(CCCN7c8ccccc8Sc8ccccc87)C6)CC5)CC4)cc3C2=O)C(=O)N1 (stereo not shown) [Exemplary Compound 23, 5-(4-(2-(4-((1-(3-(10H-phenothiazin-10-yl)propyl)azetidin-3-yl)oxy)piperidin-1-yl)ethyl)piperazin-1-yl)-2-(2,6-dioxopiperidin-3-yl)isoindoline-1,3-dione] | effectively competed | effectively reduced | 35 to 70 | 
2 | Cc1ncsc1-c1ccc([C@H](C)NC(=O)[C@@H]2C[C@@H](O)CN2C(=O)[C@@H](NC(=O)COCCOCCOc2ccc(CN3C(=O)C(=CC=Cc4ccc([N+](=O)[O-])cc4)c4ccccc43)cc2)C(C)(C)C)cc1 (single isomer, unassigned) [Exemplary Compound 7] | effectively competed | effectively reduced | 35 to 70 | without any visual impact to cell health
